Assay results published in patent US20170190705A1, “Compositions and Methods for Inhibiting BMP” (THE BRIGHAM AND WOMAN'S HOSPITAL, INC., priority 2014, published 2017).
Read-outs that look alike come from different tables or passages of the source.

Key:
ALK2 = target: T1, ALK2 (Homo sapiens, UniProt Q04771, Q207D); assay: Thermal shift kinase assay ALK2; format: binding; conditions: for ΔTmDiff.: ALK2 minus ALK5
T1 construct: His tag (TEV-cleavable) (N, cleaved yes); made in house; host or cells: Sf9 insect cells (baculovirus)
T1 sequence (Q04771 201-499 Q207D): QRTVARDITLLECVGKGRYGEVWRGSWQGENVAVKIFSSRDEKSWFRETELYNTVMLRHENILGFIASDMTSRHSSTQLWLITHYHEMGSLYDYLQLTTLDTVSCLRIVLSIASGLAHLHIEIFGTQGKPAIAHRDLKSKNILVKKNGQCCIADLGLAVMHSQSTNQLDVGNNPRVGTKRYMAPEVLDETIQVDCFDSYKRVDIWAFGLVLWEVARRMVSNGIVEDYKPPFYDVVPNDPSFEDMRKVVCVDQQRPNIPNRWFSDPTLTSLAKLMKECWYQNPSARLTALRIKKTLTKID
Description: (§1) Thermal melting experiments were performed using a Real Time PCR machine Mx3005p (Stratagene) with a protein concentration of 1-2 μM and 10 μM inhibitor as described by Niesen et al., Nat Protoc 2007, 2, 2212-21. Recombinant human kinases for DSF screening were prepared by SGC using the published methods of Sanvitale et al., PLoS One 2013, 8, e62721. The potency and selectivity of certain compounds of the invention based on thermal shift kinase and ligand induced transcriptional activity assays are shown in Table 2.

ALK5 = target: T2, ALK5 (Homo sapiens, UniProt P36897); assay: Thermal shift kinase assay ALK5; format: binding
T2 construct: made in house
T2 sequence (P36897 34-503): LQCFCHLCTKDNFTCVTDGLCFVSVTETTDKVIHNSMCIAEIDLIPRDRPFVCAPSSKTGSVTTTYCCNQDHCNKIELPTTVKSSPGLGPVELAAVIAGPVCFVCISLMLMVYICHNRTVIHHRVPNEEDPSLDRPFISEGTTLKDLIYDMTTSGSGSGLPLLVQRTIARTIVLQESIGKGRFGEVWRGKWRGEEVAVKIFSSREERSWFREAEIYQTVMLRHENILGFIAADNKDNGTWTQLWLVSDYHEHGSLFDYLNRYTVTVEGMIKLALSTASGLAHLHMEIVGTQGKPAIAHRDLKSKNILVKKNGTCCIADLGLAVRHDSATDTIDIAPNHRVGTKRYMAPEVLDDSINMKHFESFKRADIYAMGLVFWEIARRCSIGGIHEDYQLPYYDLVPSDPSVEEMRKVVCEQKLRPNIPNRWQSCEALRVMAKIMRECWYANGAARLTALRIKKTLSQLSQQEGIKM
Description: as §1

[1] = system: HePG2 hepatocarcinoma cells; format: cell-based; conditions: human
Description: The cells were incubated for 2 h (37° C. and 5% CO2) and allowed to settle and attach. Compounds of interest or DMSO were diluted in DMEM and added at final compound concentrations of 1 μM, 10 μM, and 100 μM. Cells were incubated for 4 hours and 24 hours after which the media was discarded. Cells were lysed by adding 30 μL of passive lysis buffer (Promega) and shaken at RT for 15 min. Cell viability was determined by quantifying the ATP present in each well by adding 10 μL of CellTiter-Glo (Promega) per well and measuring the light output Spectramax L luminometer (Molecular Devices) with an integration time of one second per well. Data was normalized to 100% viability for cells receiving only DMSO without any concurrent compound.

caALK1 = target: T3, caALK1 (Homo sapiens, UniProt P37023, Q201D); assay: Luciferase reporter assay constitutively active ALK1; conditions: read-out: Cell Based Assay caALK1 IC50
T3 construct: expressed in transfected cells; host or cells: C2C12 BRE-Luc cells infected with adenovirus (MOI 100)
T3 sequence (P37023 22-503 Q201D): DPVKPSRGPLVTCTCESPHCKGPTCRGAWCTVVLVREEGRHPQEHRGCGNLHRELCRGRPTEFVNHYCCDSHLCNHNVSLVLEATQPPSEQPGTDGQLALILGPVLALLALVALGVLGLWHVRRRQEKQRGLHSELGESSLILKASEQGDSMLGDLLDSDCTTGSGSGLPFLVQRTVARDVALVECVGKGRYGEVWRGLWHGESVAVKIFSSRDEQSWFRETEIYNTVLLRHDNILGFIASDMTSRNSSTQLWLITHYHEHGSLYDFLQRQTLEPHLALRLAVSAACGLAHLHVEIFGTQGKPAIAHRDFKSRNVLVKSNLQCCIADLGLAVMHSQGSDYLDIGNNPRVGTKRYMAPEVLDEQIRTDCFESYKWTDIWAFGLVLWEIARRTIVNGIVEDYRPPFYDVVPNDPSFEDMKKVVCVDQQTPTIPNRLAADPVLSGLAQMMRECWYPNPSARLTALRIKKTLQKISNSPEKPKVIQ
Description: (§2) The cells were incubated for 1 h (37° C. and 10% CO2) and allowed to settle and attach. Compounds of interest or DMSO were diluted in DMEM and added at final compound concentrations of 1 nM to 10 μM. Cells were then incubated for 30 min. Adenovirus expressing constitutively active BMP and TGF-β type I receptors (Ad.caALK1-5), generously provided by Dr. Akiko Hata (University of to California at San Francisco), were added to achieve a multiplicity of infection (MOI) of 100. Plates were incubated overnight at 37° C. Cell viability was assayed with an MIT (3-(4,5-dimethylthiazol-2-yl)-2,5-diphenyl tetrazolium bromide) colorimetric assay (Promega) per the manufacturer's instructions. Media was discarded, and firefly luciferase activity was measured (Promega) according to manufacturer's protocol. Light output was measured using a Spectramax L luminometer (Molecular Devices) with an integration time of one second per well. Data was normalized to 100% of incremental BRE-Luc activity due to adenoviruses specifying caALK1, 2, or 3, or the incremental CAGA-Luc activity due to adenoviruses specifying caALK4 or 5.

caALK3 = target: T4, caALK3 (Homo sapiens, UniProt P36894, Q233D); assay: Luciferase reporter assay constitutively active ALK3; conditions: read-out: Cell Based Assay caALK3 IC50
T4 construct: expressed in transfected cells; host or cells: C2C12 BRE-Luc cells infected with adenovirus (MOI 100)
T4 sequence (P36894 24-532 Q233D): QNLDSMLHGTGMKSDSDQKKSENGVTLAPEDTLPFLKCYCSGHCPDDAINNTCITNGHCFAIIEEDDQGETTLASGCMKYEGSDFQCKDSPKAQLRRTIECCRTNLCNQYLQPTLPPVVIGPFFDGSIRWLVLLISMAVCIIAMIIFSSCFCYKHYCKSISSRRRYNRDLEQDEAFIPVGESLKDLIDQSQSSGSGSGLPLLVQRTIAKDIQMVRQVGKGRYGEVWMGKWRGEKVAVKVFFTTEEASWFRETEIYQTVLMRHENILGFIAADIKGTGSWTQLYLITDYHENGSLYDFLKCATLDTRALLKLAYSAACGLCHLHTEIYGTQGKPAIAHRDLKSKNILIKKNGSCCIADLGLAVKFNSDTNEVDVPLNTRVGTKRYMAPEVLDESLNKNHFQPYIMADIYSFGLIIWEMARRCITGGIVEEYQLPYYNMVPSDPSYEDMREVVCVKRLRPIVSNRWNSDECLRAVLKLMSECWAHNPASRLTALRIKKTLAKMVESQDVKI
Text: as §2, with “C2Cl2 […] cells stably transfected with BMP responsive element from the Id promoter fused to luciferase reporter gene (BRE-Luc) were generously provided by Dr. Peter ten Dijke (Leiden University Medical Center, NL) following the methods described by Zilberberg et al., BMC cell biology 2007, 8, 41-50. Human embryonic kidney 293T cells stably transfected with the TGF-β responsive element from the PAI-1 promoter fused to luciferase reporter gene (CAGA-Luc) were generously provided by Dr. Howard Weiner (Brigham and Women's Hospital, Boston, Mass.) following the methods described by Oida et al., PloS one 2011, 6, e18365. C2Cl2 Bre-Luc and 293T CAGA-Luc cells were seeded in DMEM supplemented with 2% FBS at 20,000 cells per well in tissue culture treated 96-well plates (Costar® 3610; Corning). The” for “The”

caALK4 = target: T5, caALK4 (Homo sapiens, UniProt P36896); assay: Luciferase reporter assay constitutively active ALK4; conditions: read-out: Cell Based Assay caALK4 IC50
T5 sequence (P36896 1-505 T206D): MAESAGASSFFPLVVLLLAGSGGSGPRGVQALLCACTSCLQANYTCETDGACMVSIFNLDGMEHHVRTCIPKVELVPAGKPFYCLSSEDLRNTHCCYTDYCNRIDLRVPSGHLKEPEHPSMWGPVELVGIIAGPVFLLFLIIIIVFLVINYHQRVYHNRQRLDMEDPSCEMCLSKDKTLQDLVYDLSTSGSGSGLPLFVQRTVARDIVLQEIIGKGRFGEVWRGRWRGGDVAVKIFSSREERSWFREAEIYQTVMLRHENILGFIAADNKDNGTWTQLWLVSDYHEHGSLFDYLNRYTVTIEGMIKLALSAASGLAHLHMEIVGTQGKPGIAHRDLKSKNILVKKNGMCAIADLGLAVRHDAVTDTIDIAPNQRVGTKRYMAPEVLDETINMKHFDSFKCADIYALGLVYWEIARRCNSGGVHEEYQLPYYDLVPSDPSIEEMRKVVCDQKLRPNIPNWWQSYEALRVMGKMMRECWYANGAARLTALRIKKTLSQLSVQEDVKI
Text: as §2, with “C2Cl2 […] cells stably transfected with BMP responsive element from the Id promoter fused to luciferase reporter gene (BRE-Luc) were generously provided by Dr. Peter ten Dijke (Leiden University Medical Center, NL) following the methods described by Zilberberg et al., BMC cell biology 2007, 8, 41-50. Human embryonic kidney 293T cells stably transfected with the TGF-β responsive element from the PAI-1 promoter fused to luciferase reporter gene (CAGA-Luc) were generously provided by Dr. Howard Weiner (Brigham and Women's Hospital, Boston, Mass.) following the methods described by Oida et al., PloS one 2011, 6, e18365. C2Cl2 Bre-Luc and 293T CAGA-Luc cells were seeded in DMEM supplemented with 2% FBS at 20,000 cells per well in tissue culture treated 96-well plates (Costar® 3610; Corning). The” for “The”

BMP6 = assay: Ligand induced transcriptional activity assay BMP6 (BRE-Luc); format: cell-based; conditions: for IC50: cell-based signaling inhibition, read-out: BMP6 IC50; for Fold Select.: TGFβ1 vs BMP6
TGFβ1 = assay: Ligand induced transcriptional activity assay TGFβ1 (CAGA-Luc); conditions: Homo sapiens; cell-based signaling inhibition

Row | ΔTm at 10 µM (ALK2; 10 μM inhibitor) | ΔTmDiff. (ALK2) | ΔT ALK2 (ALK2; Table 6) | ΔT Diff. (ALK2; Table 6, ALK2 minus ALK5) | ΔTm at 10 µM (ALK5; 10 μM inhibitor) | ΔT ALK5 (ALK5; Table 6) | IC50 (caALK1) | IC50 (caALK3) | IC50 (caALK4) | IC50 (BMP6) | IC50 (TGFβ1) | Compound | Cell viability ([1]; 4 h, 1 μM) | Cell viability ([1]; 4 h, 10 μM) | Cell viability ([1]; 24 h, 1 μM) | Cell viability ([1]; 24 h, 10 μM) | Cell viability ([1]; 4 h, 100 μM) | Fold Select. (BMP6) | Cell viability ([1]; 24 h, 100 μM)
1 | 14 °C | 3.7 | 14.1 °C | 3.7 °C | 10.4 °C | 10.4 °C | 202 nM | 105 nM | 427 nM | – | – | COc1cc(-c2cncc(-c3ccc(N4CCNCC4)cc3)c2)cc(OC)c1OC [Compound 26, 1-(4-(5-(3,4,5-trimethoxyphenyl)pyridin-3-yl)phenyl)piperazine] | 96% | 103% | 103% | 80% | – | – | –
2 | – | 0.1 | – | – | – | – | – | – | – | 1700 nM | 15000 nM | COc1cc(-c2cc(-c3ccc(N4CCNCC4)cc3)cnc2N(C)C)cc(OC)c1OC [Compound 25, N,N-dimethyl-5-(4-(piperazin-1-yl)phenyl)-3-(3,4,5-trimethoxyphenyl)pyridin-2-amine] | 92% | 103% | 101% | 91% | 95% | – | –
3 | – | 3.8 | – | – | – | – | – | – | – | 170 ± 60 nM | 90000 nM | COc1cc(-c2cc(-c3ccc(N4CCNCC4)cc3)cnc2Cl)cc(OC)c1OC [Compound 27, 1-(4-(6-chloro-5-(3,4,5-trimethoxyphenyl)pyridin-3-yl)phenyl)piperazine] | 95% | 103% | 101% | 98% | 97% | 244 | –
4 | – | 1.5 | – | – | – | – | – | – | – | 20 ± 1 nM | 580 ± 50 nM | COc1cc(-c2cc(-c3ccc(O)cc3)cnc2N)cc(OC)c1OC [Compound 11, 4-(6-Amino-5-(3,4,5-trimethoxyphenyl)pyridin-3-yl)phenol] | 95% | 98% | 99% | 89% | 91% | 28 | 82%
5 | – | 4.2 | – | – | – | – | – | – | – | 170 ± 60 nM | – | Nc1ncc(-c2ccc(N3CCNCC3)cc2)cc1-c1cccc2ncccc12 [Compound 31, 5-(4-(piperazin-1-yl)phenyl)-3-(quinolin-5-yl)pyridin-2-amine] | 96% | 103% | 105% | 95% | 117% | – | –
6 | – | 0.1 | – | – | – | – | – | – | – | 1700 nM | 82000 nM | COc1cc(-c2cc(-c3ccc(N4CCNCC4)cc3)cnc2OC)cc(OC)c1OC [Compound 28, 1-(4-(6-methoxy-5-(3,4,5-trimethoxyphenyl)pyridin-3-yl)phenyl)piperazine] | 92% | 102% | 99% | 98% | – | – | –
7 | – | 1.7 | – | – | – | – | – | – | – | 90 ± 30 nM | 2300 nM | COc1cc(-c2cnc(N)c(-c3cc(OC)c(OC)c(OC)c3)c2)ccc1O [Compound 12, 4-(6-amino-5-(3,4,5-trimethoxyphenyl)pyridin-3-yl)-2-methoxyphenol] | 96% | 103% | 97% | 88% | 93% | – | 89%
